In one assay the test system is Panagrellus redivivus. The assay can be described thus: Ascaroside function (Table 12). It counts as in vivo. Particulars: listed = has this function. The procedure:
(§1) Various ascarosides and ascaroside blends were administered to various nematodes described below (Table 12). […] A very strong result of affecting nematode behavior is designated in the table as “strong.”

For another assay, the system named is S. glaseri. The assay can be described thus: Ascaroside function (Table 12). It counts as in vivo. Particulars: listed = has this function. As for the experimental part: as §1
The next assay deals with males. The assay can be described thus: Bioassay of HPLC-purified peak. It is filed as in vivo. As to conditions: retention time 9.7 minutes. The procedure:
A Thermo Finnigan LCQ Deca XP Max was used with electrospray ionization in positive ion mode in the 50-1000 AMU range. The Thermo Separation spectra HPLC system consisted of a P4000 quaternary pump, an AS 3000 auto sampler, and a UV 6000 diode array detector. The solvents were water with (a) 0.1% formic acid and (b) 90% acetonitrile-10% water with 10 mM ammonium formate. The column temperature was maintained at 60° C. and a solvent flow of 1.0 ml/min. The reversed phase column (PLRP-S Polymeric reversed phase column, 250×4.6 mmid, Varian Inc.) was eluted with a solvent composition starting with 90:10 (a,b) for 2 minutes, followed by a gradient to 5:95 in 20 minutes and an additional 5 minutes at 5:95. Ultraviolet absorption was monitored at 190 and 400 nm. Solvent flow between the ultraviolet detector and mass spectroscopy electrospray interface split 9:1 with a low-volume micro needle P450 splitter valve (Upchurch Scientific, Oak Harbor, Wash.), making it possible to obtain spectra of eluted compounds and simultaneously collect 90% of the injected material for bioassay. […] This was confirmed to be ascr#1 using NMR analysis.

The next assay concerns C. elegans. The assay can be described thus: Ascaroside function (Table 12). It counts as in vivo, Caenorhabditis elegans. Particulars: listed = has this function. Summed up: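 Individual ascarosides and ascaroside blends were given to the nematodes, and their effect on nematode behavior was scored. A very strong behavioral effect was rated "strong."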
Assay [1] has as its system Several of the tested nematode species. As to the kind of experiment: Retention assay. It is filed as in vivo. Particulars: 1 nM, 1 μM and 1 mM tested. The procedure:
(§2) OP50 E. coli was grown on a standard 5 cm agar plate (made with standard Nematode Growth Medium). The bacterial lawn was 16 mm in diameter and was grown overnight at 20° C. before being used in trials. Two 4 mm spots (0.6 μL) were placed on opposite sides of the bacterial lawn (using a transparent template to guide spot placement), and several minutes elapsed for the liquid to settle in before placing nematodes down on the assay. Recording began immediately upon worm placement. 0.6 μL of the control was placed on one side of the lawn, and 0.6 μL of the experimental cue was placed on the other side of the lawn, changing the location of the cue throughout trials between left/right and top/bottom to avoid bias.
(§3) Nematodes were isolated by gender at the L4 stage the day before being used in trials as developed adults. Worms were evenly divided and placed at two points equidistant from the foci of the scoring region. Trials were recorded for 20 minutes, and frames were collected for analysis at 1 frame per second. Results were averaged from at least three different trials. For every nematode species in this study, a different total number of worms (using water in both scoring regions) was tested to determine the minimum number of worms necessary for consistent unbiased results over a 20 minute trial. The total number of worms used in the multiple species assays depended on that species' optimal parameters. 10 worms were used for P. redivivus males and females, 20 worms were used for C. elegans males and O. dolichuridae males, and 14 worms were used for S. glaseri males. The Automated Software was used to compare worm occupancy in each scoring region over time, and the Chemotaxis Index (Bargmann et al., Cell 74:515-27 (1993), which is hereby incorporated by reference in its entirety) was adapted to score preference or avoidance to each ascaroside.
(§4) A video camera attached to the microscope produced a digital video stream, which was then analyzed. The ratio of the time the average worm spent in each region of interest was calculated for every trial. For ease of implementation, all worms in a single experiment were assumed to be roughly the same size. Thus worm pixels were counted instead of whole worms, allowing fractions of a worm in the region of interest to be taken into account. It also eliminated the need for a shape-based worm identification algorithm, and allowed each frame to be analyzed independently. A band-pass filter was applied to each frame to eliminate the effect of uneven lighting and also accentuate the worms against the background. The worm was then identified after thresholding the filtered image. Throughout each experiment, the locations and sizes of the regions of interest were known. Through the filtering described above, it is known which pixels are occupied by worms and which ones are not. Thus, the ratio of worm-pixels to all pixels inside the region of interest can be calculated to produce the worm-occupancy ratio. This calculation was done for every frame, giving a plot output of worm-occupancy ratio vs. time for each region.

The subject of a further assay is S. feltiae IJs. As to the kind of experiment: Dispersal assay. It is filed as in vivo. The procedure: S. feltiae IJs were washed with MILLI-Q water three times and incubated in 6 cm petri dishes for […] with a small amount (4-5 ml) of MILLI-Q water. Nematodes were placed the following day on a 10.7 g/L agar with 1010 g/cm^2 gel strength (PhytoTechnology Lab. Shawnee Mission, Kans.). Nematode behavior was assayed on multiple plates with internal plate replicates to rule out the possibility that behavior was affected by plate composition. Approximately 300 IJs in 10 μl water were placed on an agar medium and the test compounds or extracts (1-2 μl) were placed into the nematode suspension. Upon absorption (˜15 minutes) of the liquid, the freely moving nematodes were video recorded for 5-10 minutes. Dispersal behavior is temperature and season dependent. During winter, the assay is effective at room temperature (22±1° C.). During summer, the assay requires a temperature controlled environment due to the effects on nematode behavior above 23° C.
Activity-guided fractionation was conducted as reported in Srinivasan et al., Nature 454:1115-18 (2008), which is hereby incorporated by reference in its entirety, with modifications. A total of 33 insect host cadavers (G. mellonella larvae) were placed into 70% EtOH and stored at −20° C. until extraction. […]

In assay [2] the test system is Heterorhabditis bacteriophora, H. zealandica, H. floridensis. As to the kind of experiment: Ascaroside function (Table 12). Particulars: entries without asterisk. It is filed as in vivo, Heterorhabditis spp. As for the experimental part:
(§5) Ascarosides ascr#10, ascr#16, ascr#18, ascr#20, and ascr#22 were detected in certain species of Meloidogyne plant parasitic nematodes (FIG. 83) and identified using high-resolution mass spectrometry (FIGS. 84-88).
as §1

In assay [3] the test system is Steinernema riobrave, S. diaprepesi, S carpocapse. As to the kind of experiment: Ascaroside function (Table 12). It is filed as in vivo, Steinernema spp. Particulars: listed = has this function. As for the experimental part:
as §1

The next assay deals with S. feltiae. As to the kind of experiment: Ascaroside function (Table 12). Particulars: listed = has this function. It counts as in vivo, Steinernema feltiae. The procedure: as §1
In assay [4] the test system is Meloidogyne javanica, M. floridensis, M. incognita, M. hapla. The assay can be described thus: Ascaroside function (Table 12). It is filed as in vivo, Meloidogyne spp. As for the experimental part:
as §5, §1

In another assay the test system is S. glaseri males. As to the kind of experiment: Retention assay. Particulars: only this concentration. It is filed as in vivo. As for the experimental part:
as §2, §3, §4

The subject of assay [5] is P. redivivus males and females. As to the kind of experiment: Retention assay. It counts as in vivo. Particulars: only this concentration. The procedure:
as §2, §3, §4

A further assay has as its system C. elegans males. The assay can be described thus: Retention assay. It counts as in vivo. As for the experimental part:
as §2, §3, §4

Where [6] appears, read: entries with asterisk (predicted).

Each structure is given as a SMILES string. Marks after values point to notes of the source that are not given here.

Consider `C[C@H](CCCCC(=O)O)O[C@@H]1O[C@@H](C)[C@H](O)C[C@H]1O` [ascr#1], for which the figures for the “Attract Males” value in the assay on Panagrellus redivivus, with S. glaseri and in the assay with C. elegans were “ascr#1”, “ascr#1” and “ascr#l”, respectively. The “activity to males in the bioassay” value in the assay on males was “active to males”. Moreover, in the assay with C. elegans, the “Promote Dauer Formation” value is listed as “ascr#1”. Besides, the “preference for ascaroside-conditioned areas” value (“preference” for short) in [1] is recorded as “preferred areas conditioned”.
Take `C[C@H](CCC(=O)O)O[C@@H]1O[C@@H](C)[C@H](O)C[C@H]1O` [ascr#9]: the “Attract Males” value with Panagrellus redivivus and with C. elegans was “ascr#9” throughout. For the same molecule, the “dispersal activity in combination with fractions B and C” value in the assay with S. feltiae IJs (ascr#9 40 pmol/μl, ascr#11 1.3 pmol/μL) is on record as “restored the original dispersal activity”. Moreover, in the assay with S. feltiae IJs (tested alone, physiologically relevant concentration), the “dispersal behavior of S. feltiae IJs” value is listed as “did not have activity by themselves”. Further, the “Dispersal (of dauer larvae, infectious juveniles)” value (in assay [2]; in [3]; in the assay on S. feltiae; in assay [4] (entries without asterisk)) was “ascr#9” throughout. In addition, the “Repel Females/Herm.” value in assay [4] (entries without asterisk) was “ascr#9”. In addition, the “preference” value in assay [1] is reported as “preferred areas conditioned”.
On to `CC1O[C@@H](O[C@H](C)CCCCCCC(=O)O)C(O)C[C@H]1O` (some centres unmarked) [ascr#10], for which the “Attract Males” value in the assay on Panagrellus redivivus, with S. glaseri and in the assay on C. elegans was “ascr#10” each time. The “predicted function in Meloidogyne species” value in [4] (alone, in concert, and/or in concert with ascr#9 or other ascarosides) is “act as dispersants and repellants”. In assay [4] (setting [6]), the “Dispersal (of dauer larvae, infectious juveniles)” value is given as “ascr#10*”. In addition, the “Repel Females/Herm.” value in assay [4] (setting [6]) is “ascr#10*”. For the same molecule, the entries for the “concentration of conditioned regions preferred” value (in the assay on S. glaseri males; in assay [5]; in the assay with C. elegans males) were 1 mM, 1 mM and 1 µM, respectively. For the same molecule, the “preference” value in [1] is “preferred areas conditioned”.

Source of the values: patent publication US9487551B2, “Small molecule compounds that control mammal-pathogenic nematodes” (California Institute of Technology, priority 2011, dated 2016).
